Measurements reported in patent US20230293560A1, “METHOD FOR MODULATING THE BLADDER MICROBIOME TO IMPROVE BLADDER HEALTH” (Kimberly-Clark Worldwide, Inc., priority 2020, published 2023).

How the values were obtained:
E. faecalis = assay: High throughput assay screening of prebiotics; format: cell-based, Enterococcus faecalis; set-up: key: ++: if growth and fermentation was equal to or greater than the positive control; +: if growth and fermentation was less than the positive control; +: if weak or no growth or fermentation; +^2: Bacteria demonstrated growth but no fermentation on the prebiotic; conditions: 2% w/v prebiotic in API 50 CHL media; for growth and fermentation vs positive control, Ef-3: E. faecalis KC17-3969-2B, Bladder; for growth and fermentation vs positive control, Ef-4: E. faecalis KC17-4331-3, Bladder; for growth and fermentation vs positive control, Ef-1: E. faecalis ATCC BAA-2128, Culture Collection; for growth and fermentation vs positive control, Ef-2: E. faecalis KC16-7171-3, Bladder
Procedure: (§1) Most of the prebiotic compounds were initially tested in a high throughput assay screening process, described further in the Test Methods section herein, but three prebiotics (as noted in Table 3) were tested using a plate assay screening process as described in the Test Methods section herein. The prebiotics were tested against the commensal bacterial species of Lactobacillus crispatus, Lactobacillus gasseri, and Lactobacillus jensenii and against the pathogenic bacterial species of Streptococcus anginosus and Enterococcus faecalis as shown in Table 2. The bacterial species were taken from different sources, listed as culture collection, bladder, and vagina.
(§2) The results of the assay plate screening of the prebiotic compounds of Table 1 against the bacterial species of Table 2 is documented in Table 3 with the results being described by the following legend: • ++ if growth and fermentation was equal to or greater than the positive control • + if growth and fermentation was less than the positive control • […] if weak or no growth or fermentation • NT if not tested Some codes were not tested based on the use or non-use by the bacteria, as a way to efficiently move through the assay plate screening to the competition assay, described below.
(§3) • 1. Create a 2% w/v stock of prebiotic or positive control (glucose/dextrose) to be tested in API 50 CHL media (Biomerieux, Marcy-I'Étoile, France). API 50 CHL media contains minimal amounts of carbon for growth, and a bromocresol purple as a pH indicator of fermentation. Filter sterilize media with a […]. Store at 4-6° C. until use. • 2. Add 180 μL of media containing the prebiotic to a sterile, flat bottom 96-well microtiter plate (Corning, Corning, NY). • 3. From a freezer stock subculture the bacteria twice into De Man, Rogosa and Sharpe (MRS) broth (BD Difco, Becton Dickinson, Franklin Lakes, NJ), 37° C., stationary, anaerobic, overnight. • 4. From the last subculture, plate onto an MRS agar plate (Teknova, Hollister, CA) and grow 37° C., stationary, anaerobic, overnight. • 5. Create a bacterial suspension by using a sterile tipped swab to transfer colonies of bacteria into a PBS suspension blank to a 0.5 MacFarland (S. anginosus or E. faecalis) or a 1 MacFarland (Lactobacillus species) from the MRS agar plate. • 6. Enumerate the starting culture. • 7. Inoculate the media alone and media containing the prebiotic or positive control with 20 μL of the bacterial suspension. • 8. Place the plate into a spectrophotometer (Molecular Devices, San Jose, CA) and read the plate every 20 minutes for 24-48 hours. Read wavelengths (OD 430, OD 590, and OD 660). A color change to yellow caused by a drop in pH will be read by an increase in the OD430 value and a decrease in the OD590 value and is indicative of bacterial fermentation. An increase in OD660 values is indicative of an increase in turbidity and bacterial growth.

L. crispatus = assay: High throughput assay screening of prebiotics; format: cell-based, Lactobacillus crispatus; set-up: key: ++: if growth and fermentation was equal to or greater than the positive control; +: if growth and fermentation was less than the positive control; +: if weak or no growth or fermentation; +^2: Bacteria demonstrated growth but no fermentation on the prebiotic; conditions: 2% w/v prebiotic in API 50 CHL media; for growth and fermentation vs positive control, Lc-4: L. crispatus KC18-1174-1, Vagina; for growth and fermentation vs positive control, Lc-1: L. crispatus ATCC 33820, Culture Collection; for growth and fermentation vs positive control, Lc-2: L. crispatus KC16-7134-3C, Bladder; for growth and fermentation vs positive control, Lc-3: L. crispatus KC18-1173-1, Bladder
Procedure: as §1, §2, §3

S. anginosus = assay: High throughput assay screening of prebiotics; format: cell-based, Streptococcus anginosus; set-up: key: ++: if growth and fermentation was equal to or greater than the positive control; +: if growth and fermentation was less than the positive control; +: if weak or no growth or fermentation; +^2: Bacteria demonstrated growth but no fermentation on the prebiotic; conditions: 2% w/v prebiotic in API 50 CHL media; for growth and fermentation vs positive control, Sa-2: S. anginosus KC18-1131-3B, Bladder; for growth and fermentation vs positive control, Sa-1: S. anginosus ATCC 33397, Culture Collection
Procedure: as §1, §2, §3

L. gasseri = assay: High throughput assay screening of prebiotics; format: cell-based, Lactobacillus gasseri; set-up: key: ++: if growth and fermentation was equal to or greater than the positive control; +: if growth and fermentation was less than the positive control; +: if weak or no growth or fermentation; +^2: Bacteria demonstrated growth but no fermentation on the prebiotic; conditions: 2% w/v prebiotic in API 50 CHL media; for growth and fermentation vs positive control, Lg-1: L. gasseri KC16-7135-1, Bladder; for growth and fermentation vs positive control, Lg-2: L. gasseri KC16-7171-1, Bladder
Procedure: as §1, §2, §3

[1] = system: commensal and pathogenic bacterial species; assay: Prebiotic screening, summary in words across species; format: cell-based; conditions: commensal (L. crispatus, L. gasseri, L. jensenii) and pathogenic (S. anginosus, E. faecalis) species
Procedure: as §1, §2, §3
• 1. An in house bacterial agar was created based on MRS agar (Kaplan and Hutkins, 2000) where the glucose is substituted for the prebiotic to be tested (either dextran MW ˜6,000, alpha-cyclodextrin, glucomannan, or pectin), bromocresol purple was included as a pH indicator. • 2. Bacteria were enumerated on each agar and color changes were recorded. Method for Competition Assay (Modified from “In Vitro Evaluation of Nutrients that Selectively Confer a Competitive Advantage to Lactobacilli” Vongsa et al, Beneficial Microbes 2016) • 1. Create 2% w/v stock of prebiotic or positive control (glucose/dextrose) as described above. • 2. From a freezer stock subculture the bacteria twice into De Man, Rogosa and Sharpe (MRS) broth (BD Difco, Becton Dickinson, Franklin Lakes, NJ), 37° C., stationary, anaerobic, overnight. • 3. From the last subculture, plate onto an MRS agar plate for L. crispatus KC18-1173-1 or blood agar for S. anginosus KC18-1131-3B, grow 37° C., stationary, anaerobic, overnight. • 4. […]

SMILES	growth and fermentation vs positive control, Ef-3 (E. faecalis)	growth and fermentation vs positive control, Ef-4 (E. faecalis)	growth and fermentation vs positive control, Lc-4 (L. crispatus)	growth and fermentation vs positive control, Sa-2 (S. anginosus)	growth and fermentation vs positive control, Lg-4 (L. gasseri; L. gasseri KC18-1142-2, Bladder)	overall outcome of the screening of Table 3, in words [1]	growth and fermentation vs positive control, Ef-1 (E. faecalis)	growth and fermentation vs positive control, Ef-2 (E. faecalis)	growth and fermentation vs positive control, Lc-1 (L. crispatus)	growth and fermentation vs positive control, Lc-2 (L. crispatus)	growth and fermentation vs positive control, Lc-3 (L. crispatus)	growth and fermentation vs positive control, Sa-1 (S. anginosus)	growth and fermentation vs positive control, Lg-1 (L. gasseri)	growth and fermentation vs positive control, Lg-2 (L. gasseri)
OC[C@H]1O[C@@H](O[C@@H]2[C@@H](CO)OC(O)(CO)[C@H]2O)[C@H](O)[C@@H](O)[C@H]1O (mixture of isomers) [Lactulose]	+^2	+^2	++	++	+	–	–	–	–	–	–	–	–	–
O=C(O)CC(O)C(=O)O (racemic) [DL-Malic acid, DL-Malic acid (Malate)]	–	–	–	–	–	not able to provide growth for most, if not all, commensal and pathogenic bacterial species	–	–	–	–	–	–	–	–
OC[C@H]1O[C@@H](O)[C@H](O)[C@@H](O)[C@@H]1O [Beta-D-glucose, Beta-D-Glucose]	++	++	++	++	–	able to provide growth on the commensal bacterial species, but also provided growth on the pathogenic bacterial species	++	++	++	++	++	++	++	++
CC(=O)N[C@H]1C(O)O[C@H](CO)[C@@H](O)[C@@H]1O (stereo partly shown) [N-Acetylglucosamine]	++	++	+	++	–	able to provide growth on the commensal bacterial species, but also provided growth on the pathogenic bacterial species	++	++	++	+	++	++	++	++
O=C(CO)[C@@H](O)[C@@H](O)[C@H](O)CO [Tagatose]	++	++	–	–	–	–	++	++	–	–	–	–	–	–
OC[C@@H](O)[C@H](O)[C@@H](O)CO [Xylitol]	–	–	–	–	–	not able to provide growth for most, if not all, commensal and pathogenic bacterial species	–	–	–	–	–	–	–	–
